According to patent US11000033B2, “Ketone or oxime compound, and herbicide” (NISSAN CHEMICAL CORPORATION, priority 2014, dated 2021):

Legend:
Assay type in all cases: in vivo
[1] = tested on: Abutilon theophrasti; assay: Test Example 5: herbicidal effect by foliage application, plastic box (symbol M); details: 320 g/ha, 3 weeks after application
Summary of the method: (§1)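 Seeds were sown in sterilized diluvial soil, covered with about 1.5 cm of soil and grown 14 days in a greenhouse at 25° C. to 30° C. An emulsifiable formulation diluted in water to a set rate was sprayed over foliage, and injury was scored 3 weeks later.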

[2] = tested on: Leptochloa chinensis; assay: Test Example 3: herbicidal effect by foliage application, Wagner pot (symbol D); details: application herbicide amount 320 g/ha
Summary of the method: (§2)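 Herbicidal activity was rated three weeks after a foliar spray of diluted emulsion concentrate, applied at a predetermined dose to plants grown for 14 days from seed in waterlogged alluvial soil within a 25–30 °C greenhouse.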

[3] = tested on: Echinochloa crus-galli var. crus-galli; assay: Test Example 3: herbicidal effect by foliage application, Wagner pot (symbol H); details: application herbicide amount 320 g/ha
Summary of the method: as §2

[4] = tested on: Digitaria ciliaris; assay: Test Example 4: herbicidal effect by soil treatment (symbol F); details: 320 g/ha
Summary of the method: (§3)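 Seeds were sown in sterilized diluvial soil, covered with about 1.5 cm of soil, and the soil surface was sprayed with a water-diluted emulsion of the compound at a predetermined rate. Plants grew in a greenhouse at 25° C. to 30° C.; effects were scored visually 3 weeks after application.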

[5] = tested on: Echinochloa oryzacola Vasing.; assay: Test Example 1: herbicidal activity, application before weed generation in submerged conditions (symbol A); details: application herbicide amount 320 g/ha
Summary of the method: (§4)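 Ratings (5: ≥90%, near complete withering; 4: 70–<90%; 3: 40–<70%; 2: 20–<40%; 1: 5–<20%; 0: ≤5%) were assigned 3 weeks after the diluted emulsion was applied to the water surface of freshly sown, submerged pots.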

[6] = tested on: Alopecurus myosuroides; assay: Test Example 5: herbicidal effect by foliage application, plastic box (symbol J); details: 320 g/ha, 3 weeks after application
Summary of the method: as §1

[7] = tested on: Galium spurium; assay: Test Example 5: herbicidal effect by foliage application, plastic box (symbol Q); details: 320 g/ha, 3 weeks after application
Summary of the method: as §1

[8] = tested on: Scirpus juncoides; assay: Test Example 1: herbicidal activity, application before weed generation in submerged conditions (symbol B); details: application herbicide amount 320 g/ha
Summary of the method: as §4

[9] = tested on: corn; assay: Test Example 4: effect on crop by soil treatment (symbol c); details: 320 g/ha
Summary of the method: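 Seeds were sown in spots on sterilized diluvial soil in a plastic box and covered with about 1.5 cm of soil. Plants were then grown in a greenhouse at 25° C. to 30° C.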

[10] = tested on: Apera spica-venti; assay: Test Example 5: herbicidal effect by foliage application, plastic box (symbol L); details: 320 g/ha, 3 weeks after application
Summary of the method: as §1

[11] = tested on: Alopecurus myosuroides; assay: Test Example 4: herbicidal effect by soil treatment (symbol J); details: 320 g/ha
Summary of the method: as §3

[12] = tested on: wheat; assay: Test Example 5: effect on crop by foliage application, plastic box (symbol e); details: 320 g/ha, 3 weeks after application
Summary of the method: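 Soil: sterilized diluvial. Container: plastic box, 21 × 13 cm, 7 cm deep. Sowing: spot-like, ~1.5 cm cover. Growth: greenhouse, 25° C. to 30° C.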

[13] = tested on: Cyperus difformis; assay: Test Example 3: herbicidal effect by foliage application, Wagner pot (symbol E); details: application herbicide amount 320 g/ha
Summary of the method: as §2

[14] = tested on: Stellaria media; assay: Test Example 5: herbicidal effect by foliage application, plastic box (symbol P); details: 320 g/ha, 3 weeks after application
Summary of the method: as §1

[15] = tested on: directly sowed rice plant; assay: Test Example 3: effect on crop by foliage application, Wagner pot (symbol b); details: application herbicide amount 320 g/ha
Summary of the method: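 Alluvial soil in a 1/10000-are Wagner pot was flooded to a water depth of 0.1–0.5 cm. Echinochloa crus-galli var. crus-galli, Leptochloa chinensis, Cyperus difformis and rice were sown into it and grown in a greenhouse at 25–30 °C.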

[16] = tested on: rapeseed; assay: Test Example 4: effect on crop by soil treatment (symbol g); details: 320 g/ha
Summary of the method: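 Steps: fill box with sterilized diluvial soil; sow seed spot-like; cover with ~1.5 cm soil; grow in greenhouse (25° C. to 30° C.).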

Row | Compound | M: Abutilon theophrasti, herbicidal effect (criteria 0-5) [1] | herbicidal effect on D (Leptochloa chinensis), grade 0-5 [2] | herbicidal effect on H (Echinochloa crus-galli var. crus-galli), grade 0-5 [3] | F: Digitaria ciliaris, herbicidal effect grade [4] | Herbicidal effect grade, A: Echinochloa oryzacola Vasing. [5] | J: Alopecurus myosuroides, herbicidal effect (criteria 0-5) [6] | Q: Galium spurium, herbicidal effect (criteria 0-5) [7] | Herbicidal effect grade, B: Scirpus juncoides [8] | c: corn, effect grade on crop [9] | L: Apera spica-venti, herbicidal effect (criteria 0-5) [10] | J: Alopecurus myosuroides, herbicidal effect grade [11] | e: wheat, effect on crop (criteria 0-5) [12] | herbicidal effect on E, grade 0-5 [13] | P: Stellaria media, herbicidal effect (criteria 0-5) [14] | effect on crop b (directly sowed rice plant), grade 0-5 [15] | g: rapeseed, effect grade on crop [16]
1 | CON=C(CC1CC(O)=C(c2c(C)cc(C)cc2C)C1=O)C1CCCCC1 (centres unmarked) [1-085] | 0 (Herbicidal ratio of 5% or lower (almost no effect)) | 4 (Herbicidal ratio of 70% or higher and lower than 90%) | 5 (Herbicidal ratio of 90% or more (almost completely withered)) | 0 (Herbicidal ratio of 5% or lower (almost no effect)) | 4 (Herbicidal ratio of 70% or higher and lower than 90%) | 3 (Herbicidal ratio of 40% or higher and lower than 70%) | 0 (Herbicidal ratio of 5% or lower (almost no effect)) | 0 (Herbicidal ratio of 5% or lower (almost no effect)) | 0 (Herbicidal ratio of 5% or lower (almost no effect)) | 3 (Herbicidal ratio of 40% or higher and lower than 70%) | 3 (Herbicidal ratio of 40% or higher and lower than 70%) | 3 (Herbicidal ratio of 40% or higher and lower than 70%) | 0 (Herbicidal ratio of 5% or lower (almost no effect)) | 0 (Herbicidal ratio of 5% or lower (almost no effect)) | 5 (Herbicidal ratio of 90% or more (almost completely withered)) | 0 (Herbicidal ratio of 5% or lower (almost no effect))
2 | C=CC(CC1CC(O)=C(c2c(C)cc(C)cc2C)C1=O)=NOC (centres unmarked) [1-086] | 0 (Herbicidal ratio of 5% or lower (almost no effect)) | 4 (Herbicidal ratio of 70% or higher and lower than 90%) | 5 (Herbicidal ratio of 90% or more (almost completely withered)) | 2 (Herbicidal ratio of 20% or higher and lower than 40%) | 5 (Herbicidal ratio of 90% or more (almost completely withered)) | 4 (Herbicidal ratio of 70% or higher and lower than 90%) | 0 (Herbicidal ratio of 5% or lower (almost no effect)) | 0 (Herbicidal ratio of 5% or lower (almost no effect)) | 1 (Herbicidal ratio of 5% or higher and lower than 20%) | 4 (Herbicidal ratio of 70% or higher and lower than 90%) | 3 (Herbicidal ratio of 40% or higher and lower than 70%) | 0 (Herbicidal ratio of 5% or lower (almost no effect)) | 4 (Herbicidal ratio of 70% or higher and lower than 90%) | 0 (Herbicidal ratio of 5% or lower (almost no effect)) | 5 (Herbicidal ratio of 90% or more (almost completely withered)) | 2 (Herbicidal ratio of 20% or higher and lower than 40%)
